# Key:
# [1] = system: neonatal rat ventricular myocytes (NRVMs); experiment: H2O2-induced apoptosis in cultured cardiac myocytes, flow cytometry (Sub-G1 peak); assay type: cell-based
# [2] = system: neonatal rat ventricular myocytes (NRVMs); experiment: Calcium ionophore A23187-induced apoptosis in cultured cardiac myocytes, flow cytometry; assay type: cell-based
# Experimental: Cultured neonatal rat ventricular myocytes (NRVMs) were provided as cardiac myocytes used in the experiments. More specifically, hearts were extracted from 0- to 1-day-old neonatal rats (Wister, pregnant rats were purchased from Chubu Shizai). The ventricles of each heart were then treated with collagenase Type 2 (Worthington) and pancreatin (Sigma) to enzymatically isolate cardiac myocytes (collagenase 0.5 mg/ml, pancreatin 0.6 mg/ml, 4 treatments), followed by primary culture. After the enzymatically collected cells were seeded in plates and allowed to stand for 30 minutes, non-adhesive cells were collected to remove fibroblasts. The resulting cardiac myocytes were seeded at a density of 1×10^5 cells/cm^2 on 6-well plates or 75 cm^2 flasks pre-coated with 1% gelatin and then cultured at 37° C. under 5% CO2 for 48 hours in a medium consisting of DMEM/Medium 199 (4:1), 10% fetal bovine serum (FBS, Sigma), 0.1 mM bromodeoxyuridine (BrdU, Roche), penicillin (50 units/ml, GIBCO) and streptomycin (50 μg/ml, GIBCO). Culturing was carried out in a CO2 incubator under conditions of 37° C. The medium was then replaced with a serum-free medium which had been prepared from the same ingredients other than FBS and supplemented with insulin-transferrin-selenium (ITS, GIBCO). These cells were provided for experiments 24 hours after replacement with the serum-free medium. After immunocytostaining with a cardiac myocytespecific antibody (α-actinin antibody), the percentage of cardiac myocytes was measured by microscopy to confirm that 90% or more of the cells were cardiac myocytes at that stage.
# Flow cytometry analysis was performed using a Coulter EPICSXL and a software package specific for this purpose. After collection of floating cardiac myocytes from the cell culture (1×10^6 cells/well), adhered cardiac myocytes were trypsinated and collected in the same tube. […] Propidium iodide (250 μL, 25 μg/ml, Sigma) was added to and suspended well in the cell suspension, which was then allowed to stand at room temperature for 20 minutes or more and analyzed by flow cytometry. Cells showing a Sub-G1 peak in nuclear staining with propidium iodide were counted as apoptotic cells to calculate the percentage of cells showing a Sub-G1 peak relative to the total cell count measured (1×10^4 cells). The calculated percentage was defined as the percentage of apoptotic cells.
# (§1) Calcium ionophore A23187 (Sigma) was added at a final concentration of 5×10^−6 M to the cell culture of cardiac myocytes prepared as described in Example 1. The cells were cultured as described in Example 1 and analyzed to determine the percentage of apoptotic cells. […]
# [3] = system: cardiac myocytes; experiment: Apoptosis in cardiac myocytes measured as in Examples 1 and 2, modulators of the nicorandil effect; assay type: cell-based, rat
# Experimental: Flow cytometry analysis was performed using a Coulter EPICSXL and a software package specific for this purpose. After collection of floating cardiac myocytes from the cell culture (1×10^6 cells/well), adhered cardiac myocytes were trypsinated and collected in the same tube. After centrifugation, the pellet was washed with PBS, supplemented with 70% EtOH, and then allowed to stand at room temperature for 20 minutes or more to fix the cells. After fixation, the cells were washed with PBS, re-suspended in 1 ml PBS and then reacted with 50 μL RNase (1 mg/ml, Sigma) at 37° C. for 40 minutes. After the cells were allowed to stand at room temperature (if necessary), they were washed with PBS and suspended in about 250 μL PBS to prepare a cell suspension. Propidium iodide (250 μL, 25 μg/ml, Sigma) was added to and suspended well in the cell suspension, which was then allowed to stand at room temperature for 20 minutes or more and analyzed by flow cytometry. Cells showing a Sub-G1 peak in nuclear staining with propidium iodide were counted as apoptotic cells to calculate the percentage of cells showing a Sub-G1 peak relative to the total cell count measured (1×10^4 cells). The calculated percentage was defined as the percentage of apoptotic cells.
# H2O2 (Sigma) was added at a final concentration of 1×10^−4 M to the cell culture of cardiac myocytes prepared as described above (final density: 1×10^6 cells/2 ml/well), followed by culturing for 16 hours in a CO2 incubator. The cells were collected and analyzed by flow cytometory to determine the percentage of apoptotic cells. Nicorandil was also added at a final concentration of 1×10^−4 M immediately before H2O2 addition. […]
# as §1
# Apoptosis in cardiac myocytes was measured as described in Examples 1 and 2.
# [4] = system: Bad protein (phospho-Bad Ser-136); experiment: Western blot analysis of Bad phosphorylation in apoptotic cardiac myocytes; assay type: cell-based, rat; details: pre-treatment with nicorandil, apoptotic cells induced by H2O2 or A23187
# Experimental: Both floating and adhered cardiac myocytes were collected and lysed at 4° C. for 1 hour in a lysis buffer consisting of 20 mM Tris-HCl (pH 7.5), 2 mM EDTA, 3 mM EGTA, 2 mM DTT, 250 mM sucrose, 1% Triton X-100, 10 μg/ml aprotinin, 10 μM leupeptin and 0.1 mM PMSF. The resulting cell lysate was measured for its protein level by the Bradford method, solubilized in 2× sample buffer and then boiled at 95° C. for 3 minutes. After each lane was loaded with 50 μg sample and electrophoresed on a 12.5% SDS-polyacrylamide gel, the gel was transferred to a PVDF membrane. The blots were blocked overnight in 3% BSA/0.1% Tween-20 in PBS and then detected with the following primary antibodies: rabbit polyclonal Bcl-2 antibody (Pharmingen), rabbit polyclonal Bax antibody (Pharmingen), mouse monoclonal p53 antibody (Calbiochem), mouse monoclonal poly(ADP-ribose) polymerase (PARP) antibody (Clontech) and rabbit polyclonal CPP32 antibody (Santa Cruz). […]
# Both floating and adhered cardiac myocytes were collected from 75 cm^2 flasks and lysed in 0.5 mL lysis buffer consisting of 10 mM Tris-HCl (pH 7.4), 1 mM EDTA, 1 mM EGTA (pH 8.0), 150 mM NaCl, 1% Triton X-100, 0.2 mM sodium ortho-vanadate, 0.2 mM PMSF and 0.5% NP-40. […] The total Bad content was determined by probing with a rabbit polyclonal Bad antibody (New England Biolabs). […]
# [5] = system: Neonatal rat cardiac myocytes; experiment: JC-1 mitochondrial membrane potential, confocal microscopy, H2O2 stimulation; assay type: cell-based; details: pre-treatment with nicorandil 100 μmol/L; H2O2 200 μmol/L, 20 min
# Excerpt: A fluorescent probe JC-1, a detection reagent for mitochondrial membrane potential, was used to confirm that nicorandil inhibited apoptosis in cardiac myocytes stimulated by H2O2. In most cases of cellular apoptosis, cytochrome C is translocated from mitochondrial membrane to cytosol, during which loss of mitochondrial membrane potential is known. Since JC-1 is a cationic fluorescent substance, it easily enters cells and emits red fluorescence (λem=590 nm) in normal cell mitochondria through formation of polymers called J-aggregates. […] Neonatal rat cardiac myocytes were seeded at a density of 1×10^6 cells/well in 35 mm dishes with glass bottoms (IWAKI) and cultured at 37° C. for 10 minutes in serum-free DMEM/F12 medium containing 10 μg/mL JC-1 (Wako Pure Chemical Industries, Ltd.). The cells on the dishes were observed using a confocal laser scanning microscope and a 20× objective lens. Fluorescence was excited by the 488 nm line of an argon laser and the 543 nm line of a helium-neon laser.
# [6] = system: animal models of ischemic reperfusion; details: cited from earlier work
compound,measurement,setting,value
CCCCCC(O)CCCC(=O)O (stereo not drawn) [5-hydroxydecanoate],effect on the anti-apoptotic effect of nicorandil (H2O2-induced apoptosis),[1]; 5-hydroxydecanoate 5×10^−4 M + nicorandil 1×10^−4 M + H2O2 1×10^−4 M,partially blocked
same,effect on the anti-apoptotic effect of nicorandil (A23187-induced apoptosis),[2]; 5-hydroxydecanoate 5×10^−4 M + nicorandil 1×10^−4 M + A23187 5×10^−6 M,completely blocked
COc1ccc(Cl)cc1C(=O)NCCc1ccc(S(=O)(=O)NC(=O)NC2CCCCC2)cc1 [glibenclamide],effect on the anti-apoptotic effect of nicorandil (H2O2-induced apoptosis),[1]; glibenclamide 1×10^−5 M + nicorandil + H2O2 1×10^−4 M,completely blocked
"COC(=O)[C@@H](N)CCCNC(=N)N[N+](=O)[O-] [L-NAME, N^G-nitro L-arginine methyl ester]",effect on the anti-apoptotic effect of nicorandil,[3]; L-NAME final concentration 10^−6 M,partially blocked
"OO [H2O2, hydrogen peroxide]",percentage of apoptotic cells,"[1]; 1×10^−4 M H2O2, 16 hours, 10% or less in the absence of H2O2",more than 70%
CNc1ccc2oc(C[C@H]3O[C@@]4(CC[C@H]3C)O[C@H]([C@H](C)C(=O)c3ccc[nH]3)[C@H](C)C[C@H]4C)nc2c1C(=O)O [A23187],induction of apoptosis,[2]; A23187 5×10^−6 M,induced apoptosis significantly
ZVAD,block of the pro-apoptosis effect of A23187,"[2]; ZVAD 1×10^−5 M, A23187 5×10^−6 M",around 50%
"O=C(NCCO[N+](=O)[O-])c1cccnc1 [nicorandil, N-(2-hydroxyethyl)nicotinamide nitrate ester]",inhibition of H2O2-induced apoptosis,"[1]; 1×10^−4 M nicorandil added immediately before 1×10^−4 M H2O2, 16 hours",significantly inhibited to the control level
same,inhibition at 100 µM,"[1]; Rattus norvegicus, Ventricular myocyte, pre-treatment with nicorandil 10^−4 M, read-out: inhibition of NRVM apoptosis induced by H2O2",60%
same,inhibition at 100 µM,"[2]; Rattus norvegicus, Ventricular myocyte, nicorandil 1×10^−4 M, A23187 5×10^−6 M, read-out: block / inhibition of apoptosis induced by calcium ionophore A23187",~50%
same,phosphorylation level of Bad,[4],increase the phosphorylation level of Bad
same,JC-1 green fluorescence (loss of mitochondrial membrane potential) upon H2O2 stimulation,[5],inhibit such green fluorescence
same,infarct size,[6],decrease infarct size
nitroprusside,effect on the anti-apoptotic effect of nicorandil,[3]; nitroprusside final concentration 10^−4 M,enhanced
COc1ccc2c(c[n+](C)c3c4cc5c(cc4ccc23)OCO5)c1OC [chelerythrine],effect on the anti-apoptotic effect of nicorandil,[3]; chelerythrine final concentration 10^−6 M,completely disappeared

# From patent US20040235163A1, “Myocardial cell apoptosis inhibitors” (priority 2001, published 2004)
